According to patent US10640506B2, “Cyclobutyl substituted pyrrolopyridine and pyrrolopyrimidines derivatives as JAK inhibitors” (Incyte Corporation, priority 2010, dated 2020):
Structures can show the parent of a compound that is named as a salt. Where two headings read alike, the source gives them in different places.

Key:
[1] = target: human JAK1 (a.a. 837-1142) (Homo sapiens, UniProt P23458); test: In vitro JAK kinase assay (HTRF, phosphorylation of biotinylated peptide), JAK1; assay type: biochemical; details: 1 mM ATP, read-out: JAK1 IC50
Chain of human JAK1 (a.a. 837-1142) (P23458 849-1154): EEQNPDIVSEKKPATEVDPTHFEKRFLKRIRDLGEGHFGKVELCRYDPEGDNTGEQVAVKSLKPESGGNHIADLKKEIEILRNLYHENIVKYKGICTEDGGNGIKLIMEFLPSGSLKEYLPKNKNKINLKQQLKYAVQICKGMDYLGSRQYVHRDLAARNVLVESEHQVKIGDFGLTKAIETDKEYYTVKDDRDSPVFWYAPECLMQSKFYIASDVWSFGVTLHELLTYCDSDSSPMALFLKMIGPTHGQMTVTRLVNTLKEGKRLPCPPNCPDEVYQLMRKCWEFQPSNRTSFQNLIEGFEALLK
In short: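 His-tagged human JAK1 catalytic domain (a.a. 837-1142), baculovirus/insect-cell expressed, phosphorylates a biotinylated peptide for 1 h at room temperature. Reaction stopped with EDTA; product detected by HTRF (SA-APC, Eu-Py20, 40 min binding). IC50 reported as ranges.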

JAK2 (a.a. 828-1132) = target: T1, JAK2 (a.a. 828-1132) (Homo sapiens, UniProt O60674); test: In vitro JAK kinase assay (HTRF, phosphorylation of biotinylated peptide), JAK2; assay type: biochemical; details: 1 mM ATP, read-out: JAK2 IC50
T1 construct: JAK2 (a.a. 828-1132); His tag (N)
T1 sequence (O60674 828-1132): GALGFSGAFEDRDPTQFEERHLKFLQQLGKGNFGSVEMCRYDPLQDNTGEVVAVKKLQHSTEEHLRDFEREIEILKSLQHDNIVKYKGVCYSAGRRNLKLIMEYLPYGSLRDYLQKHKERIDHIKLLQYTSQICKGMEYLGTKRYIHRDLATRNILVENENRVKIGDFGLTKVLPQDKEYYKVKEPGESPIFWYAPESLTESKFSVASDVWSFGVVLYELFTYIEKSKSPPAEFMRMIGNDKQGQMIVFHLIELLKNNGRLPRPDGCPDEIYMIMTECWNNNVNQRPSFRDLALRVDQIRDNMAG
In short: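 His-tagged catalytic domains of human JAK1 (a.a. 837-1142) and JAK2 (a.a. 828-1132), baculovirus-expressed, phosphorylate a biotinylated peptide for 1 hour at room temperature. Stopped with EDTA; detected by HTRF using SA-APC and Eu-Py20 antibody after 40 min binding; values binned as ranges.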

| SMILES | IC50 ([1]; Table A) [nM] | IC50 (JAK2 (a.a. 828-1132); Table A) [nM] | IC50 ([1]; Table B) [nM] | IC50 (JAK2 (a.a. 828-1132); Table B) [nM] |
| --- | --- | --- | --- | --- |
| N#CC[C@]1(n2cc(-c3ncnc4[nH]ccc34)cn2)C[C@@H](N2CCN(C(=O)c3cncc(C(F)(F)F)n3)CC2)C1 [Example 14a, [cis-1-[4-(7H-pyrrolo[2,3-d]pyrimidin-4-yl)-1H-pyrazol-1-yl]-3-(4-{[6-(trifluoromethyl)pyrazin-2-yl]carbonyl}piperazin-1-yl)cyclobutyl]acetonitrile] | < 10 | 25 to 100 |  |  |
| N#CC[C@]1(n2cc(-c3ncnc4[nH]ccc34)cn2)C[C@H](N2CCN(C(=O)c3cncc(C(F)(F)F)n3)CC2)C1 [Example 14b, [trans-1-[4-(7H-pyrrolo[2,3-d]pyrimidin-4-yl)-1H-pyrazol-1-yl]-3-(4-{[6-(trifluoromethyl)pyrazin-2-yl]carbonyl}piperazin-1-yl)cyclobutyl]acetonitrile] |  |  | < 10 | 25 to 100 |
| N#CC[C@]1(n2cc(-c3ncnc4[nH]ccc34)cn2)C[C@@H](N2CCN(C(=O)c3ccc(F)c(F)c3)CC2)C1 [Example 15a, {cis-3-[4-(3,4-difluorobenzoyl)piperazin-1-yl]-1-[4-(7H-pyrrolo[2,3-d]pyrimidin-4-yl)-1H-pyrazol-1-yl]cyclobutyl}acetonitrile] | < 10 | 25 to 100 |  |  |
| N#CC[C@]1(n2cc(-c3ncnc4[nH]ccc34)cn2)C[C@H](N2CCN(C(=O)c3ccc(F)c(F)c3)CC2)C1 [Example 15b, {trans-3-[4-(3,4-difluorobenzoyl)piperazin-1-yl]-1-[4-(7H-pyrrolo[2,3-d]pyrimidin-4-yl)-1H-pyrazol-1-yl]cyclobutyl}acetonitrile] |  |  | < 10 | 10 to 25 |
| N#CC[C@]1(n2cc(-c3ncnc4[nH]ccc34)cn2)C[C@@H](N2CCN(Cc3c(F)ccc(F)c3Cl)CC2)C1 [Example 16a, {cis-3-[4-(2-chloro-3,6-difluorobenzyl)piperazin-1-yl]-1-[4-(7H-pyrrolo[2,3-d]pyrimidin-4-yl)-1H-pyrazol-1-yl]cyclobutyl}acetonitrile] | < 10 | 10 to 25 |  |  |
| N#CC[C@]1(n2cc(-c3ncnc4[nH]ccc34)cn2)C[C@H](N2CCN(Cc3c(F)ccc(F)c3Cl)CC2)C1 [Example 16b, {trans-3-[4-(2-chloro-3,6-difluorobenzyl)piperazin-1-yl]-1-[4-(7H-pyrrolo[2,3-d]pyrimidin-4-yl)-1H-pyrazol-1-yl]cyclobutyl}acetonitrile] |  |  | < 10 | 25 to 100 |

Second part, the molecule after the results:

| IC50 ([1]; Table A) [nM] | IC50 (JAK2 (a.a. 828-1132); Table A) [nM] | IC50 ([1]; Table B) [nM] | IC50 (JAK2 (a.a. 828-1132); Table B) [nM] | SMILES |
| --- | --- | --- | --- | --- |
| < 10 | 25 to 100 |  |  | N#CC[C@]1(n2cc(-c3ncnc4[nH]ccc34)cn2)C[C@@H](N2CCN(C(=O)c3cc(F)cc(C(F)(F)F)c3)CC2)C1 [Example 17, {cis-3-{4-[3-fluoro-5-(trifluoromethyl)benzoyl]piperazin-1-yl}-1-[4-(7H-pyrrolo[2,3-d]pyrimidin-4-yl)-1H-pyrazol-1-yl]cyclobutyl}acetonitrile] |
|  |  | < 10 | 10 to 25 | N#CC[C@]1(n2cc(-c3ncnc4[nH]ccc34)cn2)C[C@H](N2CCN(C(=O)c3ccc(C(F)(F)F)cc3F)CC2)C1 [Example 18, {trans-3-{4-[2-fluoro-4-(trifluoromethyl)benzoyl]piperazin-1-yl}-1-[4-(7H-pyrrolo[2,3-d]pyrimidin-4-yl)-1H-pyrazol-1-yl]cyclobutyl}acetonitrile 2.3×(trifluoroacetate) Salt] |
|  |  | 10 to 25 | > 100 | N#CC[C@]1(n2cc(-c3ncnc4[nH]ccc34)cn2)C[C@H](N2CCN(C(=O)N3CCCC3)CC2)C1 [Example 19, {trans-3-[4-(pyrrolidin-1-ylcarbonyl)piperazin-1-yl]-1-[4-(7H-pyrrolo[2,3-d]pyrimidin-4-yl)-1H-pyrazol-1-yl]cyclobutyl}acetonitrile] |
| < 10 | 25 to 100 |  |  | N#CC[C@]1(n2cc(-c3ncnc4[nH]ccc34)cn2)C[C@@H](N2CCN(C(=O)c3cccc(C(F)(F)F)n3)CC2)C1 [Example 20a, {cis-1-[4-(7H-pyrrolo[2,3-d]pyrimidin-4-yl)-1H-pyrazol-1-yl]-3-(4-{[6-(trifluoromethyl)pyridin-2-yl]carbonyl}piperazin-1-yl)cyclobutyl}acetonitrile] |
